{
  "source": "ChEMBL document CHEMBL5465560",
  "about": "“Selectivity Literature for EUbOPEN Chemogenomic Library” (2024)",
  "key": {"[1]": {"biological_target": "Tyrosine-protein kinase BTK (Homo sapiens, UniProt Q06187)", "test": "Selectivity interaction (KinomeScan (DiscoverX)) EUB0001049a BTK", "details": "at 1 µM"}, "[2]": {"biological_target": "Receptor-type tyrosine-protein kinase FLT3 (Homo sapiens) (UniProt P36888)", "sequence (P36888 whole entry)": "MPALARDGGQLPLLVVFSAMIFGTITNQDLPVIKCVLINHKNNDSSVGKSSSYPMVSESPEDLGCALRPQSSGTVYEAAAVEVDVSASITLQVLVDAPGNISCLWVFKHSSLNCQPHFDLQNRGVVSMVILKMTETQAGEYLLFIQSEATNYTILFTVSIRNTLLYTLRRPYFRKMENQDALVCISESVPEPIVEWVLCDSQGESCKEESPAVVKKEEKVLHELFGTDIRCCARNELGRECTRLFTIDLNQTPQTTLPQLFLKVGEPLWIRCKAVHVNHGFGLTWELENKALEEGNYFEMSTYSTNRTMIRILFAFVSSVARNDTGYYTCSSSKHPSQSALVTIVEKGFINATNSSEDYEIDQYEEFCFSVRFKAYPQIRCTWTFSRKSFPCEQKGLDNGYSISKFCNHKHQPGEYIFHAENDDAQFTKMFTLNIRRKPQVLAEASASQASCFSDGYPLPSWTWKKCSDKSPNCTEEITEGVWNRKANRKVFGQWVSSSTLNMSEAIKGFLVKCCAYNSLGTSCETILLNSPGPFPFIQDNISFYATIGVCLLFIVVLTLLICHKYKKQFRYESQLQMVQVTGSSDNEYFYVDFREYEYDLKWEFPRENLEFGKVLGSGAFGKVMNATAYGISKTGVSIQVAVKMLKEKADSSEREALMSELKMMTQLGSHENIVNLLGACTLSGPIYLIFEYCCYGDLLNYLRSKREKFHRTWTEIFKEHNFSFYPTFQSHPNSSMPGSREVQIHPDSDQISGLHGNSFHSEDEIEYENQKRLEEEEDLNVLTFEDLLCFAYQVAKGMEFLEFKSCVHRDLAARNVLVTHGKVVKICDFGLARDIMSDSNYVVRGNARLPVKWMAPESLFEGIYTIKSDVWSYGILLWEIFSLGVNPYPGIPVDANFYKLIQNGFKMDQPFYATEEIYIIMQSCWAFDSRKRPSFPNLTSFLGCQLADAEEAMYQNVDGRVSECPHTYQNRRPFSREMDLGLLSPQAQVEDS", "test": "Selectivity interaction (KinomeScan (DiscoverX)) EUB0001049a FLT3", "details": "at 1 µM"}, "[3]": {"biological_target": "Proto-oncogene tyrosine-protein kinase Src (Homo sapiens, UniProt P12931)", "sequence (P12931 2-536 limits assumed)": "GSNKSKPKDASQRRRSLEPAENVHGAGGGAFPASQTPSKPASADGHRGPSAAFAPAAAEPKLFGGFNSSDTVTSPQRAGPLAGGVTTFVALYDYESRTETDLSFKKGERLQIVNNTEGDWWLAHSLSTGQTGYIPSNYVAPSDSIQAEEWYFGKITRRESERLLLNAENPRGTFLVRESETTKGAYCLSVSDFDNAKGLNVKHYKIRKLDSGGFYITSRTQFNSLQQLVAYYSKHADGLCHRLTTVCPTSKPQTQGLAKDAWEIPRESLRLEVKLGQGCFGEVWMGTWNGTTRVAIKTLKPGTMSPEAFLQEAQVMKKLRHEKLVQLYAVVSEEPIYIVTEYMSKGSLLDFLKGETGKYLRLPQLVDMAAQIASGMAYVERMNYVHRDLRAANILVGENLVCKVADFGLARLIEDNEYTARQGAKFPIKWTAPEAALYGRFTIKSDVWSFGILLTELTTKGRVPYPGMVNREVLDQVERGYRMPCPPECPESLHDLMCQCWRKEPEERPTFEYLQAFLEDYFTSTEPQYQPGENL", "details": "at 10 µM"}, "[4]": {"biological_target": "Phosphatidylinositol 3-kinase catalytic subunit type 3 (Homo sapiens, UniProt Q8NEB9)", "test": "Selectivity interaction (Kinase panel (Invitrogen)) EUB0000639a PIK3C3", "details": "at 200 nM"}, "[5]": {"biological_target": "Cyclin-dependent kinase 16 (Homo sapiens) (UniProt Q00536)", "sequence (Q00536 whole entry)": "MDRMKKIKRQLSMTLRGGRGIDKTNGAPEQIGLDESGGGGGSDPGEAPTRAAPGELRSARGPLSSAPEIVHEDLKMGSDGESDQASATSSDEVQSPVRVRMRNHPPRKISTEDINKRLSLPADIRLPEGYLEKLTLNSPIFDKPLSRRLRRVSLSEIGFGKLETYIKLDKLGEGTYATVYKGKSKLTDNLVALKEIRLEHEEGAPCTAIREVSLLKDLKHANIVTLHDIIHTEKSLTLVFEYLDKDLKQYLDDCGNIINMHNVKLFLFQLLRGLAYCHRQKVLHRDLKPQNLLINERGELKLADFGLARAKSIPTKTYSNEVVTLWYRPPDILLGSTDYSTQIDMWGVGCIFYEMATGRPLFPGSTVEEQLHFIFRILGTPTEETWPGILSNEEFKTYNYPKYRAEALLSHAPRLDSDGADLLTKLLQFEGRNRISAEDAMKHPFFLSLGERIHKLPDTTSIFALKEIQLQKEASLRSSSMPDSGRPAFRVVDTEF", "test": "Selectivity interaction (ActivX KiNativ screen (kinase selectivity in THP-1 cell lysates)) EUB0000639a CDK16", "type": "subcellular", "details": "lysate, at 0.01 µM"}, "[6]": {"biological_target": "Tyrosine-protein kinase ABL1 (Homo sapiens, UniProt P00519)", "sequence (P00519 whole entry)": "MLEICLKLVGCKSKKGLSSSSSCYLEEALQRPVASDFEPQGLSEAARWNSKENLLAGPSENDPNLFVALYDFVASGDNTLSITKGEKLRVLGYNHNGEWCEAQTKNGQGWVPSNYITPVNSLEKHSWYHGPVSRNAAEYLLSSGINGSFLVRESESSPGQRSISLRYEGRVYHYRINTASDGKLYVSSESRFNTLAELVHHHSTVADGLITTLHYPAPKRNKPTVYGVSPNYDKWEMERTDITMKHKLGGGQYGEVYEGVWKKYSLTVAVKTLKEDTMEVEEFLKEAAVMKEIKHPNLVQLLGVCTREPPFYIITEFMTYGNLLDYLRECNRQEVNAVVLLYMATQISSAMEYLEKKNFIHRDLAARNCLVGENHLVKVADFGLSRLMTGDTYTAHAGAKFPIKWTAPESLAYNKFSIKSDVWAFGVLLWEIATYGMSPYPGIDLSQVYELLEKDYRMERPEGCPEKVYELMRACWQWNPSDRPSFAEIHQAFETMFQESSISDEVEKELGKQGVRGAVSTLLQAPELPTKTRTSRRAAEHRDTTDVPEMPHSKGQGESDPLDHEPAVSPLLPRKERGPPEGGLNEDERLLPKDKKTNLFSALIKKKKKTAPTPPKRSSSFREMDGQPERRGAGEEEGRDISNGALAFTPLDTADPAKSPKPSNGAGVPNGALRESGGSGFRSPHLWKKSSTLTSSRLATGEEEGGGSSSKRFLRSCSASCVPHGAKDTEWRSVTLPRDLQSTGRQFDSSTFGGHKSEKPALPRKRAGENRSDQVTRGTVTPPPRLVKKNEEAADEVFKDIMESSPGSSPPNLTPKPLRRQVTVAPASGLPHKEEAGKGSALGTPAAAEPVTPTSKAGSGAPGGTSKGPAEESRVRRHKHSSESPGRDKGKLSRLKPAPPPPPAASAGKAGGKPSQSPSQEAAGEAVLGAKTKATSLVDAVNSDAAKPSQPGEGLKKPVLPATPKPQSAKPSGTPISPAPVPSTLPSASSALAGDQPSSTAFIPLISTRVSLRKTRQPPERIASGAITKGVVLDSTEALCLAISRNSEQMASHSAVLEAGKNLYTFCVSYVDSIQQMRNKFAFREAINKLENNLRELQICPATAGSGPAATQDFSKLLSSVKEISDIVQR", "test": "Selectivity interaction (ActivX KiNativ screen (kinase selectivity in THP-1 cell lysates)) EUB0000639a ABL1", "type": "subcellular", "details": "lysate"}, "[7]": {"biological_target": "T1, TGF-beta receptor type-1 (Homo sapiens) (UniProt P36897)", "T1 sequence (whole entry)": "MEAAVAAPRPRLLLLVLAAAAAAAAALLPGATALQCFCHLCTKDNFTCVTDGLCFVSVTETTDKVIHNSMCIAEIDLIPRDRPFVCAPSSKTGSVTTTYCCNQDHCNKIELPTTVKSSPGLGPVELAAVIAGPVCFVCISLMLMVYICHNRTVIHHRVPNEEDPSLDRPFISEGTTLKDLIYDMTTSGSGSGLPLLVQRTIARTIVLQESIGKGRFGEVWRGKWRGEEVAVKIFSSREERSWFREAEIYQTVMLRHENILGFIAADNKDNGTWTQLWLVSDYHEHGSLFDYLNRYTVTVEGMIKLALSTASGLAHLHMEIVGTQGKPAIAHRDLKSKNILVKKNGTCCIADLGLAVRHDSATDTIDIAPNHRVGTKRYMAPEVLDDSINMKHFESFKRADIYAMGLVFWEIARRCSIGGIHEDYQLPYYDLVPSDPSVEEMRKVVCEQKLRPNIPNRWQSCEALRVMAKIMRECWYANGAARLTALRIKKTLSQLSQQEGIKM", "test": "Selectivity interaction (KinomeScan (DiscoverX)) EUB0000595a TGFBR1", "details": "at 10 µM"}, "[8]": {"biological_target": "Epithelial discoidin domain-containing receptor 1 (Homo sapiens) (UniProt Q08345)", "test": "Selectivity interaction (KinomeScan (DiscoverX)) EUB0000092b DDR1", "details": "at 10 µM"}, "[9]": {"biological_target": "Proto-oncogene tyrosine-protein kinase receptor Ret (Homo sapiens, UniProt P07949)", "sequence (P07949 whole entry)": "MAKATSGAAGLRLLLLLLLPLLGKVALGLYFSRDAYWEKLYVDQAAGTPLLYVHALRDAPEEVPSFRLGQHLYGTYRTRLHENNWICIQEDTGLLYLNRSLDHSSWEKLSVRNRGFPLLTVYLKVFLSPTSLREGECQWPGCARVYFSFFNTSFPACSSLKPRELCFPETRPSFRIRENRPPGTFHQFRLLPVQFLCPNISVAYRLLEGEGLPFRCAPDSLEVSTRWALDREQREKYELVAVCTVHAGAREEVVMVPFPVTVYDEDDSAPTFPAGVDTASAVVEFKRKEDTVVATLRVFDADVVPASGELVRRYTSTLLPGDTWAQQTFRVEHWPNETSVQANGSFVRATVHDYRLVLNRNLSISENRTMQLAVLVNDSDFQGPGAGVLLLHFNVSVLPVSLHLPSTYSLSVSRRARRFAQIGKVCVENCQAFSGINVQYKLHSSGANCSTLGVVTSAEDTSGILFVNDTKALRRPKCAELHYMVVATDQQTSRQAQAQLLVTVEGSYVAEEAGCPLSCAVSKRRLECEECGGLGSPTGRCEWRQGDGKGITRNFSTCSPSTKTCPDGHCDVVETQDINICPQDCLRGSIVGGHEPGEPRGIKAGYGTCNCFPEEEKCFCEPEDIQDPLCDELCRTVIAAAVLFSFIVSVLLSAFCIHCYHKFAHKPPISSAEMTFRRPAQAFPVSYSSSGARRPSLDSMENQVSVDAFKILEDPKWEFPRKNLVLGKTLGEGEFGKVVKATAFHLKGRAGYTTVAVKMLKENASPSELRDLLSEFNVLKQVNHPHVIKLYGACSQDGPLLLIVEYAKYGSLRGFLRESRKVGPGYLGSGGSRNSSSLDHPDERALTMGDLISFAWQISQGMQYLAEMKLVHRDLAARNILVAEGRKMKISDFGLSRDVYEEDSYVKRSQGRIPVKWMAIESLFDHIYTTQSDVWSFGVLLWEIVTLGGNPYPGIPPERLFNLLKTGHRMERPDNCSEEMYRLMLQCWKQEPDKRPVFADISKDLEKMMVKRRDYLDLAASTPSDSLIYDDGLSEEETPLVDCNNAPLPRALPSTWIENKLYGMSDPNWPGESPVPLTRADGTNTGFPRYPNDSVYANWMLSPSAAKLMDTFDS", "test": "(§1) Selectivity interaction (KinomeScan (DiscoverX)) EUB0000092b RET", "details": "at 10 µM"}, "[10]": {"test_system": "Proto-oncogene tyrosine-protein kinase receptor Ret (Homo sapiens), P07949 [M918T]", "sequence (P07949 whole entry M918T)": "as the sequence (P07949 whole entry) above, with M918T counted along it", "test": "as §1", "details": "at 10 µM"}, "[11]": {"test_system": "Proto-oncogene tyrosine-protein kinase receptor Ret (Homo sapiens), P07949 [V804M]", "sequence (P07949 whole entry V804M)": "as the sequence (P07949 whole entry) above, with V804M counted along it", "test": "as §1", "details": "at 10 µM"}, "[12]": {"test_system": "Proto-oncogene tyrosine-protein kinase receptor Ret (Homo sapiens), P07949 [V804L]", "sequence (P07949 whole entry V804L)": "as the sequence (P07949 whole entry) above, with V804L counted along it", "test": "as §1", "details": "at 10 µM"}, "[13]": {"biological_target": "T2, Activin receptor type-1 (Homo sapiens) (UniProt Q04771)", "T2 sequence (whole entry)": "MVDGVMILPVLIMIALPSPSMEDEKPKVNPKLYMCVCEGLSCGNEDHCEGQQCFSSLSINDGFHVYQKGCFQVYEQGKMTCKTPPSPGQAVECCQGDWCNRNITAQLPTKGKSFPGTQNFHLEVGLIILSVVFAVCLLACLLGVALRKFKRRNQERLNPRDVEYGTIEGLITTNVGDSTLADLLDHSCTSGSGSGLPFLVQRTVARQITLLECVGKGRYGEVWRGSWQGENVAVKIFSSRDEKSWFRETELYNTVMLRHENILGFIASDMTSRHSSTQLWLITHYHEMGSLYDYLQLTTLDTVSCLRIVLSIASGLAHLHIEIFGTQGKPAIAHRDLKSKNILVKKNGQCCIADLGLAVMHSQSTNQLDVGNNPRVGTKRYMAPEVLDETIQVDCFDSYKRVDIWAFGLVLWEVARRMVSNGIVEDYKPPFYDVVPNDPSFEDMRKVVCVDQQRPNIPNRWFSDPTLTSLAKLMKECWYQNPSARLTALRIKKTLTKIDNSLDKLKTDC", "test": "Selectivity interaction (KinomeScan (DiscoverX)) EUB0000092b ACVR1", "details": "at 10 µM"}, "[14]": {"biological_target": "Tyrosine-protein kinase receptor Tie-1 (Homo sapiens) (UniProt P35590)", "test": "Selectivity interaction (Ambit KINOMEscan and KiNATiv profiling in Jurkat cells) EUB0000090b TIE1", "type": "cell-based", "details": "at 1 µM"}, "[15]": {"biological_target": "Activin receptor type-1-like (Homo sapiens) (UniProt P37023)", "sequence (P37023 whole entry)": "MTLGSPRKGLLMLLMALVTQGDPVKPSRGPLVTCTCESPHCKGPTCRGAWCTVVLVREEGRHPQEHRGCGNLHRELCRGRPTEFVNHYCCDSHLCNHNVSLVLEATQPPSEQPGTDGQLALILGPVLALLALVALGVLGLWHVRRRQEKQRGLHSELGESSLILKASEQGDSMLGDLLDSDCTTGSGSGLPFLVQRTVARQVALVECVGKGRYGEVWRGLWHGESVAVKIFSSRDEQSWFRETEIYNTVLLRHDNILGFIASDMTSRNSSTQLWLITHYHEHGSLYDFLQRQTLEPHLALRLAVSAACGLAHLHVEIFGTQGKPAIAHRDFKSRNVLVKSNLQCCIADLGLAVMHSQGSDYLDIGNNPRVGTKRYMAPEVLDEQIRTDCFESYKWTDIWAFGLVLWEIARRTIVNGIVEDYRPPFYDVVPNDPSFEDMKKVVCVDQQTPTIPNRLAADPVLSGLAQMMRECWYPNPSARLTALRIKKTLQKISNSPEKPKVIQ", "test": "Selectivity interaction (Ambit KINOMEscan and KiNATiv profiling in Jurkat cells) EUB0000090b ACVRL1", "type": "cell-based", "details": "at 1 µM"}, "[16]": {"biological_target": "SRSF protein kinase 3 (Homo sapiens) (UniProt Q9UPE1)", "test": "Selectivity interaction (KinomeScan (DiscoverX)) EUB0000618a SRPK3", "details": "at 10 µM"}, "[17]": {"biological_target": "T3, Myotonin-protein kinase (Homo sapiens) (UniProt Q09013)", "T3 sequence (whole entry)": "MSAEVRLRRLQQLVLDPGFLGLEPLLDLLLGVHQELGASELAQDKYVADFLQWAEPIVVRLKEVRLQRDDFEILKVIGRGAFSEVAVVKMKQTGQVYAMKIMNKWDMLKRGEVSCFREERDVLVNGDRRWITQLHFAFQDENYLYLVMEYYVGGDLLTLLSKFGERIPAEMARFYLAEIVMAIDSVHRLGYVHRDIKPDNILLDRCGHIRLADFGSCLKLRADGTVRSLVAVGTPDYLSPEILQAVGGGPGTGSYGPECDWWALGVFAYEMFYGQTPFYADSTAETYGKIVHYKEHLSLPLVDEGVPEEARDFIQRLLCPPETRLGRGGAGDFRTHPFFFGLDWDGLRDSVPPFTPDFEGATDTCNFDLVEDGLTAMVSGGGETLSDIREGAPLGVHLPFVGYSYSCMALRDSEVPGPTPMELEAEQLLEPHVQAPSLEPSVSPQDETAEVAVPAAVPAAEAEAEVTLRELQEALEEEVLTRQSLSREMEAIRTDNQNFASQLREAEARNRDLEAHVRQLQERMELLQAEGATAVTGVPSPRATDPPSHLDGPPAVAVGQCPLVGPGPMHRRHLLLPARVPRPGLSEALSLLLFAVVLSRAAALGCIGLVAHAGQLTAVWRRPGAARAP", "test": "Selectivity interaction (ProQinase) EUB0000171b DMPK"}},
  "data": [
    {"smiles": "COc1cc(Nc2nc(C)cc(-c3cnn4nc(OC)ccc34)n2)cc(C(F)(F)F)c1", "values": [
      {"measurement": "% of control", "setting": "[1]", "result": 87, "unit": "%"},
      {"measurement": "% of control", "setting": "[2]", "result": 64, "unit": "%"}
    ]},
    {"smiles": "CCN(CC)CCCCNc1ncc2cc(-c3cc(OC)cc(OC)c3)c(NC(=O)NC(C)(C)C)nc2n1", "values": [
      {"measurement": "% of control", "setting": "[3]", "result": 100, "unit": "%"}
    ]},
    {"smiles": "CC[C@@H]1[C@H](F)C(=O)N[C@@H]1COc1nccc2cc(C(N)=O)c(OC)cc12", "note": "[ZIMLOVISERTIB]", "values": [
      {"measurement": "% of inhibition", "setting": "[4]", "result": -5.2, "unit": "%"},
      {"measurement": "% of inhibition", "setting": "[5]", "result": -0.6, "unit": "%"},
      {"measurement": "% of inhibition", "setting": "[6]; at 0.01 µM", "result": 12.8, "unit": "%"},
      {"measurement": "% of inhibition", "setting": "[6]; at 0.04 µM", "result": -16, "unit": "%"},
      {"measurement": "% of inhibition", "setting": "[6]; at 0.2 µM", "result": -25.4, "unit": "%"},
      {"measurement": "% of inhibition", "setting": "[6]; at 1 µM", "result": -5.3, "unit": "%"},
      {"measurement": "% of inhibition", "setting": "[6]; at 5 µM", "result": -19.6, "unit": "%"}
    ]},
    {"smiles": "COCC(=O)NC/C=C/c1ccc2ncnc(Nc3ccc(Oc4ccc(C)nc4)c(C)c3)c2c1", "note": "[CP-724714]", "values": [
      {"measurement": "% of control", "setting": "[7]", "result": 100, "unit": "%"}
    ]},
    {"smiles": "CCC(=O)N1CCN(c2ccc(-n3c(=O)ccc4cnc5ccc(-c6cnc7ccccc7c6)cc5c43)cc2C(F)(F)F)CC1", "values": [
      {"measurement": "% of control", "setting": "[8]", "result": 100, "unit": "%"},
      {"measurement": "% of control", "setting": "[9]", "result": 44, "unit": "%"},
      {"measurement": "% of control", "setting": "[10]", "result": 51, "unit": "%"},
      {"measurement": "% of control", "setting": "[11]", "result": 69, "unit": "%"},
      {"measurement": "% of control", "setting": "[12]", "result": 66, "unit": "%"},
      {"measurement": "% of control", "setting": "[13]", "result": 28, "unit": "%"}
    ]},
    {"smiles": "CN(C)C/C=C/C(=O)Nc1ccc(C(=O)N2CCCC(Nc3ncc(Cl)c(-c4c[nH]c5ccccc45)n3)C2)cc1", "note": "(configuration not stated)", "values": [
      {"measurement": "% of control", "setting": "[14]", "result": 96, "unit": "%"},
      {"measurement": "% of control", "setting": "[15]", "result": 79, "unit": "%"}
    ]},
    {"smiles": "O[C@H]1CC[C@H](Nc2ncc3nc(Nc4c(F)cc(F)cc4F)n([C@H]4CCOC4)c3n2)CC1", "values": [
      {"measurement": "% of control", "setting": "[16]", "result": 92, "unit": "%"}
    ]},
    {"smiles": "C=CC(=O)Nc1cccc(C(=O)Nc2ccc(Nc3cc(-c4[nH]c(SC)nc4C)ccn3)cc2)c1", "values": [
      {"measurement": "% of control", "setting": "[17]; at 1 µM", "result": 97, "unit": "%"},
      {"measurement": "% of control", "setting": "[17]; at 5 µM", "result": 92, "unit": "%"}
    ]}
  ]
}
